Molecular target: T1, human mAChR M1 (Homo sapiens, UniProt P11229)
T1 construct: host or cells: CHO-K1
T1 sequence (P11229 1-460): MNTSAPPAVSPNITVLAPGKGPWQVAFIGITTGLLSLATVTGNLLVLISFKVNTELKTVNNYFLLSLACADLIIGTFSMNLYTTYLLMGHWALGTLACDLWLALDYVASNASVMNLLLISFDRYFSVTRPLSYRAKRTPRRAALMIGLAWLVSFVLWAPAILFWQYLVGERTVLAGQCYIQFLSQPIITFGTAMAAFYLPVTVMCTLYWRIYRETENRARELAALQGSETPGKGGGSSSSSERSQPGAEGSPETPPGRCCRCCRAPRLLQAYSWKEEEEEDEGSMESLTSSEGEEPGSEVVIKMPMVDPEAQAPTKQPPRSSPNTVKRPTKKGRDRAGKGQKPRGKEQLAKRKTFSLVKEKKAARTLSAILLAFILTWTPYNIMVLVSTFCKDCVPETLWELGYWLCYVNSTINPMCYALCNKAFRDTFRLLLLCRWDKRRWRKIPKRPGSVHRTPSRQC
Experiment: mAChR M1 cell-based functional assay (calcium mobilization, Fluo-4, FDSS)
Settings: CHO-K1 cells stably expressing hM1; for Emax: EC20 acetylcholine response, read-out: Human M1 Emax; for EC50: positive allosteric modulator activity as increase in the EC20 acetylcholine response
Description: Chinese hamster ovary (CHO-K1) cells stably expressing rat (r)M1 were purchased from the American Type Culture Collection and cultured according to their indicated protocol. […] To make stable rM2, hM2, rM3, hM4, and rM4 cell lines for use in calcium mobilization assays, these cells also were stably transfected with a chimeric G-protein (Gqi5) (provided by B. R. Conklin, University of California, San Francisco) using Lipofectamine 2000. rM1, hM1, rM3, hM3, rM5, and hM5 cells were grown in Ham's F-12 medium containing 10% heat-inactivated fetal bovine serum (FBS), 20 mM HEPES, and 50 μg/mL G418 sulfate. rM2-Gqi5, hM2-Gqi5, and hM4-Gqi5 cells were grown in the same medium also containing 500 μg/mL Hygromycin B. Stable rM4-Gqi5 cells were grown in DMEM containing 10% heat-inactivated FBS, 20 mM HEPES, 400 μg/mL G418 sulfate, and 500 μg/mL Hygromycin B.
For high throughput measurement of agonist-evoked increases in intracellular calcium, CHO-K1 cells stably expressing muscarinic receptors were plated in growth medium lacking G418 and hygromycin at 15,000 cells/20 μL/well in Greiner 384-well black-walled, tissue culture (TC)-treated, clear-bottom plates (VWR). Cells were incubated overnight at 37° C. and 5% CO2. […] Compound master plates were formatted in an 11 point CRC format (1:3 dilutions) in 100% DMSO with a starting concentration of 10 mM using the BRAVO liquid handler (Agilent). Test compound CRCs were then transferred to daughter plates (240 nL) using the Echo acoustic plate reformatter (Labcyte, Sunnyvale, Calif.) and then diluted into assay buffer (40 μL) to a 2× stock using a Thermo Fisher Combi (Thermo Fisher Scientific, Waltham, Mass.).
Calcium flux was measured using the Functional Drug Screening System (FDSS) 6000 (Hamamatsu Corporation, Tokyo, Japan) as an increase in the fluorescent static ratio. Compounds were applied to cells (20 μL, 2×) using the automated system of the FDSS 6000 at 4 s into the 300 s protocol and the data were collected at 1 Hz. […] Agonist activity was analyzed as a concentration-dependent increase in calcium mobilization upon compound addition. Positive allosteric modulator activity was analyzed as a concentration-dependent increase in the EC20 acetylcholine response. Antagonist activity was analyzed as a concentration-dependent decrease in the EC80 acetylcholine response. Concentration-response curves were generated using a four-parameter logistical equation in XLfit curve fitting software (IDBS, Bridgewater, N.J.) for Excel (Microsoft, Redmond, Wash.) or Prism (GraphPad Software, Inc., San Diego, Calif.).
The compound numbers correspond to the compound numbers used in Table 1.

Row | Emax [%] | EC50 [nM] | SMILES
1 | 65.7 | 110 | Cn1ccc(-c2ccc(Cc3cc(C(=O)N[C@H]4CCCC[C@@H]4O)nc4c3ccn4C)cn2)n1 [Compound 155, N-[(1S,2S)-2-hydroxycyclohexyl]-1-methyl-4-[[6-(1-methylpyrazol-3-yl)-3-pyridyl]methyl]pyrrolo[2,3-b]pyridine-6-carboxamide]
2 | 87.1 | 140 | Cn1cc(-c2ccc(Cc3cc(C(=O)NC4CC5(COC5)C4)nc4c3ccn4C)cn2)cn1 [Compound 48, 1-methyl-4-[[6-(1-methylpyrazol-4-yl)-3-pyridyl]methyl]-N-(2-oxaspiro[3.3]heptan-6-yl)pyrrolo[2,3-b]pyridine-6-carboxamide]
3 | 87.9 | 180 | Cn1cc(-c2ccc(Cc3cc(C(=O)NC4CCOC(C)(C)C4)nc4c3ccn4C)cn2)cn1 (stereo not drawn) [Compound 49, N-(2,2-dimethyltetrahydropyran-4-yl)-1-methy1-4-[[6-(1-methylpyrazol-4-yl)-3-pyridyl]methyl]pyrrolo[2,3-b]pyridine-6-carboxamide]
4 | 71.2 | 230 | Cn1ccc2c(Cc3ccc(-c4cscn4)cc3)cc(C(=O)NC3CCOCC3)nc21 [Compound 2, 1-methyl-N-tetrahydropyran-4-yl-4-[(4-thiazol-4-ylphenyl)methyl]pyrrolo[2,3-b]pyridine-6-carboxamide]
5 | 60.8 | 280 | COCCNC(=O)c1cc(Cc2ccc(-c3coc(C)n3)cc2)c2ccsc2n1 [Compound 143, N-(2-methoxyethyl)-4-[[4-(2-methyloxazol-4-yl)phenyl]methyl]thieno[2,3-b]pyridine-6-carboxamide]
6 | 72.3 | 430 | O=C(NC1CC2(COC2)C1)c1cc(Cc2ccc(-n3cccn3)cc2)c2ccsc2n1 [Compound 80, N-(2-oxaspiro[3.3]heptan-6-yl)-4-[(4-pyrazol-1-ylphenyl)methyl]thieno[2,3-b]pyridine-6-carboxamide]
7 | 70.7 | 410 | CCn1ccc2c(Cc3ccc(-n4cccn4)cc3)cc(C(=O)N[C@H]3CC[C@@H]3O)nc21 [Compound 13, 1-ethyl-N-[(1S,2S)-2-hydroxycyclobutyl]-4-[(4-pyrazol-1-ylphenyl)methyl]pyrrolo[2,3-b]pyridine-6-carboxamide]
8 | 66.1 | 2530 | Cn1ccc(-c2ccc(Cc3cc(C(=O)NC4CC(F)(F)C4)nc4c3ccn4C)cn2)n1 [Compound 154, N-(3,3-difluorocyclobutyl)-1-methyl-4-[[6-(1-methylpyrazol-3-yl)-3-pyridyl]methyl]pyrrolo[2,3-b]pyridine-6-carboxamide]
9 | 53.5 | 40 | Cn1cc(-c2ccc(Cc3cc(C(=O)NC4COC4)nc4sccc34)cn2)cn1 [Compound 124, 4-[[6-(1-methylpyrazol-4-yl)-3-pyridyl]methyl]-N-(oxetan-3-yl)thieno[2,3-b]pyridine-6-carboxamide]
10 | 83.6 | 840 | Cc1nc(-c2ccc(Cc3cc(C(=O)N[C@H]4CC[C@@H]4O)nc4c3ccn4C)cc2)co1 [Compound 57, N-[(1S,2S)-2-hydroxycyclobutyl]-1-methy1-4-[[4-(2-methyloxazol-4-yl)phenyl]methyl]pyrrolo[2,3-b]pyridine-6-carboxamide]
11 | 89 | 200 | Cn1ncc2c(Cc3ccc(-n4cccn4)cc3)cc(C(=O)N[C@H]3CCOC[C@@H]3O)nc21 [Compound 7, N-[(3R,4S)-3-hydroxytetrahydropyran-4-yl]-1-methyl-4-[(4-pyrazol-1-ylphenyl)methyl]pyrazolo[3,4-b]pyridine-6-carboxamide]
12 | 58.6 | 940 | Cn1cc(-c2ccc(Cc3cc(C(=O)NC4CC(F)C4)nc4sccc34)cn2)cn1 (stereo not drawn) [Compound 125, N-(3-fluorocyclobutyl)-4-[[6-(1-methylpyrazol-4-yl)-3-pyridyl]methyl]thieno[2,3-b]pyridine-6-carboxamide]
13 | 65.3 | 1110 | CC1CC(NC(=O)c2cc(Cc3ccc(-c4cscn4)cc3)c3ccn(C)c3n2)CC(C)O1 (stereo not drawn) [Compound 24, N-(2,6-dimethyltetrahydropyran-4-yl)-1-methyl-4-[(4-thiazol-4-ylphenyl)methyl]pyrrolo[2,3-b]pyridine-6-carboxamide]
14 | 54.8 | 60 | Cn1cc(-c2ccc(Cc3cc(C(=O)NCC4CCOCC4)nc4sccc34)cn2)cn1 [Compound 119, 4-[[6-(1-methylpyrazol-4-yl)-3-pyridyl]methyl]-N-(tetrahydropyran-4-ylmethyl)thieno[2,3-b]pyridine-6-carboxamide]
15 | 77.7 | 820 | Cn1ccc(-c2ccc(Cc3cc(C(=O)NCC4CCOCC4)nc4c3ccn4C)cn2)n1 [Compound 150]
16 | 81.6 | 190 | Cn1ccc(-c2ccc(Cc3cc(C(=O)NC4CCOCC4(C)C)nc4c3ccn4C)cn2)n1 (stereo not drawn) [Compound 147]
17 | 37.9 | 1450 | Cn1ccc2c(Cc3ccc(-c4nccs4)cc3)cc(C(=O)NCC3CCOCC3)nc21 [Compound 68, 1-methyl-N-(tetrahydropyran-4-ylmethyl)-4-[(4-thiazol-2-ylphenyl)methyl]pyrrolo[2,3-b]pyridine-6-carboxamide]
18 | 74 | 280 | CCn1ccc2c(Cc3ccc(-n4cccn4)cc3)cc(C(=O)NC3CCOCC3)nc21 [Compound 11, 1-ethyl-4-[(4-pyrazol-1-ylphenyl)methyl]-N-tetrahydropyran-4-yl-pyrrolo[2,3-b]pyridine-6-carboxamide]
19 | 45.5 | > 10000 | Cn1ccc(-c2ccc(Cc3cc(C(=O)NC4(C)COC4)nc4c3ccn4C)cn2)n1 [Compound 152, 1-methyl-N-(3-methyloxetan-3-yl)-4-[[6-(1-methylpyrazol-3-yl)-3-pyridyl]methyl]pyrrolo[2,3-b]pyridine-6-carboxamide]
20 | 63.4 | 270 | Cn1cc(-c2ccc(Cc3cc(C(=O)NC4CC(F)(F)C4)nc4sccc34)cn2)cn1 [Compound 126, N-(3,3-difluorocyclobutyl)-4-[[6-(1-methylpyrazol-4-yl)-3-pyridyl]methyl]thieno[2,3-b]pyridine-6-carboxamide]
21 | 74.3 | 370 | Cn1ccc(-c2ccc(Cc3cc(C(=O)N[C@@H]4CCC[C@H]4O)nc4c3ccn4C)cc2)n1 [Compound 42, N-[(1R,2R)-2-hydroxycyclopentyl]-1-methy1-4-[[4-(1-methylpyrazol-3-yl)phenyl]methyl]pyrrolo[2,3-b]pyridine-6-carboxamide]
22 | 61.8 | 140 | CCn1ccc2c(Cc3ccc(-n4cccn4)cc3)cc(C(=O)N[C@H]3CCCCC[C@@H]3O)nc21 [Compound 15, 1-ethyl-N-[(1S,2S)-2-hydroxycycloheptyl]-4-[(4-pyrazol-1-ylphenyl)methyl]pyrrolo[2,3-b]pyridine-6-carboxamide]
23 | 86.1 | 520 | Cc1nc(-c2ccc(Cc3cc(C(=O)NC4CCOC(C)(C)C4)nc4c3ccn4C)cc2)co1 (stereo not drawn) [Compound 55, N-(2,2-dimethyltetrahydropyran-4-yl)-1-methyl-4-[[4-(2-methyloxazol-4-yl)phenyl]methyl]pyrrolo[2,3-b]pyridine-6-carboxamide]
24 | 76.4 | 1210 | Cn1ccc(-c2ccc(Cc3cc(C(=O)NCC4CCOC4)nc4c3ccn4C)cn2)n1 (stereo not drawn) [Compound 151, 1-methyl-4-[[6-(1-methylpyrazol-3-yl)-3-pyridyl]methyl]-N-(tetrahydrofuran-3-ylmethyl)pyrrolo[2,3-b]pyridine-6-carboxamide]

Source: patent US10899759B2, “Positive allosteric modulators of the muscarinic acetylcholine receptor M1” (Vanderbilt University, priority 2016, dated 2021)
